Experimental data taken from patent US8633226B2, “Piperidinyl derivative as a modulator of chemokine receptor activity” (Bristol-Myers Squibb Company, priority 2008, dated 2014).

What was measured:
[1] = In vitro metabolism assay, human liver microsomes, Assay Conditions A; assay type: in vitro ADME; settings: 0.5 μM compound, 10 minutes, 37° C.
Experimental: Test compound is received as a 3.5 mM stock solution in 100 percent DMSO. Compound is diluted to create a 50 μM acetonitrile (ACN) solution containing 1.4% DMSO, which is then used as a 100× stock for incubation with microsomes. Each compound is tested in duplicate separately in each of three species in the Metabolic Stability-Human, Rat, and Mouse assay suite or as individual species in the Metabolic Stability-Dog or Metabolic Stability-Monkey suites. Compound, NADPH and liver microsome solutions are combined for incubation in three steps:
152 μL of liver microsome suspension, protein concentration of 1.1 mg/mL in 100 mM NaPi, pH 7.4, 6.6 mM MgCl2 buffer, is pre-warmed at 37° C.
• 1) 1.7 μL of 50 μM compound (98.6% ACN, 1.4% DMSO) is added to the same tube and pre-incubated at 37° C. for 5 minutes. • 2) The reaction is initiated by the addition of 17 μL of pre-warmed 10 mM NADPH solution in 100 mM NaPi, pH 7.4. • 3) Reaction components are mixed well, and 75 μL are immediately transferred into 150 μl quench/stop solution (zero-time point, T0). Reactions are incubated at 37° C. for 10 minutes and then an additional 75 μL aliquot is transferred into 150 μL quench solution. Acetonitrile containing 100 μM DMN (a UV standard for injection quality control), is used as the quench solution to terminate metabolic reactions. • 4) Quenched mixtures are centrifuged at 1500 rpm (˜500×g) in an Allegra X-12 centrifuge, SX4750 rotor (Beckman Coulter Inc., Fullerton, Calif.) for fifteen minutes to pellet denatured microsomes. A volume of 90 μL of supernatant extract, containing the mixture of parent compound and its metabolites, is then transferred to a separate 96-well plate for UV-LC/MS-MS analysis to determine the percent of parent compound that is remaining in the mixture. • 5)

[2] = In vitro metabolism assay, human liver microsomes, Assay Conditions B; assay type: in vitro ADME; settings: 10 min, 3 μM, pH 7.4
Experimental: Test compound is received as 20 mM in DMSO. Compound is diluted to create a 300 μM acetonitrile (ACN) solution containing 1.5% DMSO, which is then used as a 100× stock for incubation with microsomes. Each compound is tested in duplicate separately in each of three species in the Metabolic Stability-Human, Rat, Mouse assay suite or individual species in the Metabolic Stability-Dog or Metabolic Stability-Monkey suites. Compound, NADPH and liver microsome solutions are combined for incubation in three steps: • 1. 450 μL of liver microsome suspension, protein concentration of 1 mg/mL in 100 mM NaPi, pH. 7.4, 6.6 mM MgCl2 buffer, are pre-warmed at 37° C. • 2. 5 μl of 300 μM compound (98.5% CAN, 1.5% DMSO) is added to the same tube. • 3. The reaction is initiated by the addition of 50 μl of pre-warmed 5 mM NADPH solution in 100 mM NaPi, pH 7.4.
Reaction components are mixed well and 150 μL removed to quench/stop solution immediately for the zero-minute time point. Reactions are incubated at 37° C. for 10 minutes and then an additional 150 μL removed from incubation. Aliquots removed are combined with 300 μL ACN which contains 100 μM DMN as a UV standard for detection.
Quenched mixtures are centrifuged at 1500 rpm (˜500×g) in an Allegra X-12 centrifuge, SX4750 rotor (Beckman Coulter Inc., Fullerton, Calif.) for fifteen minutes to pellet denatured microsomes. A volume of 110 μl of supernatant extract, containing the mixture of parent compound and its metabolites, is then transferred to a separate 96-well plate for UV-LC/MS-MS analysis to determine the percent of parent compound that is remaining in the mixture.

[3] = molecular target: human cardiac sodium channel SCN5A (Homo sapiens (Human), UniProt Q14524); assay: Sodium channel whole-cell patch-clamp assay; assay type: cell-based; settings: HEK-293 cells expressing human cardiac sodium channel SCN5A, pH 7.4, protein-free buffer, read-out: Na, % inh
Chain of human cardiac sodium channel SCN5A (Q14524 whole entry): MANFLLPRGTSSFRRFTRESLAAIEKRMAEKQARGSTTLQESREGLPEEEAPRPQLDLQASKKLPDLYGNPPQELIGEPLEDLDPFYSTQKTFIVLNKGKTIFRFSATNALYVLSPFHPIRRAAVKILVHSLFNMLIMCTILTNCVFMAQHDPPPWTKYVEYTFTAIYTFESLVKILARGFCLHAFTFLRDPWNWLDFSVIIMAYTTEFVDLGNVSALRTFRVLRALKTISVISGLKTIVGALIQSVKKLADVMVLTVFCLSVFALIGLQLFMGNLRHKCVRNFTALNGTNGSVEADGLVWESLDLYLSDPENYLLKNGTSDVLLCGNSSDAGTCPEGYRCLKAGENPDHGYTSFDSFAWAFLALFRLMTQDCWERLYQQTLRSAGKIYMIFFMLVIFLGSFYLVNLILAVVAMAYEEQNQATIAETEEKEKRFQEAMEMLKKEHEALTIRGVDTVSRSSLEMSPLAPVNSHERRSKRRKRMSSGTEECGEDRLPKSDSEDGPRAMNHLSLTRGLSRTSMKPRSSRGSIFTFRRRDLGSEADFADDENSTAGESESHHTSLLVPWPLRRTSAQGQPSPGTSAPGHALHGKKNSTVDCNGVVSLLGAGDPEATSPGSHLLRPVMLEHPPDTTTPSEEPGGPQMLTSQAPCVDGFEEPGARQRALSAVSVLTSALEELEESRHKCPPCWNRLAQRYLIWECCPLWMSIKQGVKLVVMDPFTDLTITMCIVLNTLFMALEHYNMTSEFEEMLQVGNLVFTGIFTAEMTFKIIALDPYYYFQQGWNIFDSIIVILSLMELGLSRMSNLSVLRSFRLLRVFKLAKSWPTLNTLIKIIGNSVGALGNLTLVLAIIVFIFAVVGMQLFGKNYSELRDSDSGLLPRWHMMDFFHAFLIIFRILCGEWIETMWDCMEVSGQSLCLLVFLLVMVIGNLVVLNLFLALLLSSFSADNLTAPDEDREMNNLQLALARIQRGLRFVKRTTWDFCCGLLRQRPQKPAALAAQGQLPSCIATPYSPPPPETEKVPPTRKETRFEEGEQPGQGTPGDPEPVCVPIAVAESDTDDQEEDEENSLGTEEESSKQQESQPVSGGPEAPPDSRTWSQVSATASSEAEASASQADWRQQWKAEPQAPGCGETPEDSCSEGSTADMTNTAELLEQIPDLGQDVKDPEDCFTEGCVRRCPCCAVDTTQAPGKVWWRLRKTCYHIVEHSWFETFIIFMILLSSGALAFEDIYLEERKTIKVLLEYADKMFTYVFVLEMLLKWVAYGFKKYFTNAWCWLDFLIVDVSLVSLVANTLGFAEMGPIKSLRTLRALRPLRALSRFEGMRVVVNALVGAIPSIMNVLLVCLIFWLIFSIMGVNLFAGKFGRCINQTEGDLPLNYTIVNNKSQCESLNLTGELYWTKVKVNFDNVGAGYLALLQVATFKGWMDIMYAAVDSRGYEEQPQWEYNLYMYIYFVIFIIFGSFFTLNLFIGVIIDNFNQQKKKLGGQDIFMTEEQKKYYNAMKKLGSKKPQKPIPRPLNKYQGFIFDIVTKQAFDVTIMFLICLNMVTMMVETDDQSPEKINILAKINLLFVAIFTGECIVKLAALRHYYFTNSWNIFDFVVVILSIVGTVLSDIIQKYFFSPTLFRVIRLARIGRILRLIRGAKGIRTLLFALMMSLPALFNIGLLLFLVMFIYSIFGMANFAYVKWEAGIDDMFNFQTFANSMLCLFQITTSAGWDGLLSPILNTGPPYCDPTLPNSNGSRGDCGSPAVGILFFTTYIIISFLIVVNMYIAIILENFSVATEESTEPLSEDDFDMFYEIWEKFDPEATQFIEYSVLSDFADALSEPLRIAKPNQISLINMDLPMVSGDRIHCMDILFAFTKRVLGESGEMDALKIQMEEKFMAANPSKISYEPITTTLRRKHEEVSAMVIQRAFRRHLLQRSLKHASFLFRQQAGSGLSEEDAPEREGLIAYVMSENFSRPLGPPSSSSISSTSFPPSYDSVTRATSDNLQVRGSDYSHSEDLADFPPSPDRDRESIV
Experimental: Whole-cell patch-clamp was used to directly measure inward sodium currents in HEK-293 cells expressing the human cardiac sodium channel, SCN5A. After reach steady-state effect in the presence of drug, rate-dependence was assessed by stimulation at frequencies of 1 Hz and 4 Hz. Experiments were carried out using an aqueous buffer at pH 7.4 and at room temperature. There is no protein in the buffer and drug concentrations reported are nominal free drug levels. Test article was evaluated up to 10 μM (protein-free buffer). Rate-dependence of inhibition was assessed by stimulation at frequencies of 1 Hz and 4 Hz.

[4] = molecular target: human cardiac L-type Ca channel (α1C) and its β subunit (Homo sapiens (Human), UniProt Q13936); assay: L-type calcium channel whole-cell patch-clamp assay; assay type: cell-based; settings: 30 μM, HEK-293 cells, protein-free buffer
Chain of human cardiac L-type Ca channel (α1C) and its β subunit (Q13936 whole entry): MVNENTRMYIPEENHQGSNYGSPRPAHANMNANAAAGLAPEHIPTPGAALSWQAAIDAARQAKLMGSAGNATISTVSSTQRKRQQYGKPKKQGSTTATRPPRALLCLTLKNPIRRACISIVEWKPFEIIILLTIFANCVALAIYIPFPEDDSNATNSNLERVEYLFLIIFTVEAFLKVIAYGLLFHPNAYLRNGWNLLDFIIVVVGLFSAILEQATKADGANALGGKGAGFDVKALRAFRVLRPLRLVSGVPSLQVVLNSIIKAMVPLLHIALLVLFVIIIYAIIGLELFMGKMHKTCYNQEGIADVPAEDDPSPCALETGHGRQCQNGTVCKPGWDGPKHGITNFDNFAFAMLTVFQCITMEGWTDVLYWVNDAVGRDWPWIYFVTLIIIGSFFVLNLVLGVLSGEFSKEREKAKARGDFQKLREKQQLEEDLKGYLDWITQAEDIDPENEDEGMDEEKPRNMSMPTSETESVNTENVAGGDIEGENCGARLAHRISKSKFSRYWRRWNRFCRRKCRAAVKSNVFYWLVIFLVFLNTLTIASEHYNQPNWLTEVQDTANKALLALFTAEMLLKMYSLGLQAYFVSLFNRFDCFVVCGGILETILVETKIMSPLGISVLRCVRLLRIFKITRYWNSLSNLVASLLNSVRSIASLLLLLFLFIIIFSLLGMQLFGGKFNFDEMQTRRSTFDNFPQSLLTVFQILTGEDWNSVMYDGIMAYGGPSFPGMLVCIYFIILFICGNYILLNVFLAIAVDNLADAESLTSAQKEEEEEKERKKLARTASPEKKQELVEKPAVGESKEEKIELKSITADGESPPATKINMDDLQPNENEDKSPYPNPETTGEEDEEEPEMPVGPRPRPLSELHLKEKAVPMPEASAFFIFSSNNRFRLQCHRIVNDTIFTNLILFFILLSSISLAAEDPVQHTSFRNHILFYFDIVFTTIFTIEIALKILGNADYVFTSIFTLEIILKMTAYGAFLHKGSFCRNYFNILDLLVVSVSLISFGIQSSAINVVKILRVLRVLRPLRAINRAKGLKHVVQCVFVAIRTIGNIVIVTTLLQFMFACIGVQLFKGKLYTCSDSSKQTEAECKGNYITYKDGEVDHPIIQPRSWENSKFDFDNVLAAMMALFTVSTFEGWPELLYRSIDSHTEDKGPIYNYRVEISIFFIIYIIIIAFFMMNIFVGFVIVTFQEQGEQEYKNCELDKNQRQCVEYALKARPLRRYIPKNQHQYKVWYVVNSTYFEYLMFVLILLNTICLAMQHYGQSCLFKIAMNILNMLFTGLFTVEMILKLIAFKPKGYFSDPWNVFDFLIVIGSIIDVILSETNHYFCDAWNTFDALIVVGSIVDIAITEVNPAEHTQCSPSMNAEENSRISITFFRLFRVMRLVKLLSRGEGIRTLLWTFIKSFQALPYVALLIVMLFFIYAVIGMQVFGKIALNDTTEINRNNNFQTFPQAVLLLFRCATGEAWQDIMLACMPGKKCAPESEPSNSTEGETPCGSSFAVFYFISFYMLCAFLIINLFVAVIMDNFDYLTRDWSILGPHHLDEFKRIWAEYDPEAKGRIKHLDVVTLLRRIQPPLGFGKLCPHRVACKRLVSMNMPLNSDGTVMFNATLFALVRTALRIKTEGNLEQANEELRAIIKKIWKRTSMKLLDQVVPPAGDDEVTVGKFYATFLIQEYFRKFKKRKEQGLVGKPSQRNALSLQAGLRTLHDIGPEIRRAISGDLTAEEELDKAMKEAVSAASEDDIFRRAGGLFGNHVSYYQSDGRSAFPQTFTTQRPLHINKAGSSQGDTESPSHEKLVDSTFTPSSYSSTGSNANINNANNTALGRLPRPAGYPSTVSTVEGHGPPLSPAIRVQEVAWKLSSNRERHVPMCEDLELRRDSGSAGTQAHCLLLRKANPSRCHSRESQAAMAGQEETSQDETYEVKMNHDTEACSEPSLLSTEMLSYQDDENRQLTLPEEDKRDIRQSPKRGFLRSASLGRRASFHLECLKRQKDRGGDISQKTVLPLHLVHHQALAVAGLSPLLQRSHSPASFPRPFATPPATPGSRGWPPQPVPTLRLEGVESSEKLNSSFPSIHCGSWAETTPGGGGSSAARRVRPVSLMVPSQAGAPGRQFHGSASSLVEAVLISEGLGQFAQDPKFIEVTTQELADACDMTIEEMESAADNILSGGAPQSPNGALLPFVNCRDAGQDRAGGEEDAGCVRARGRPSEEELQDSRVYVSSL
Chain of human cardiac L-type Ca channel (α1C) and its β subunit (Q08289 whole entry partner): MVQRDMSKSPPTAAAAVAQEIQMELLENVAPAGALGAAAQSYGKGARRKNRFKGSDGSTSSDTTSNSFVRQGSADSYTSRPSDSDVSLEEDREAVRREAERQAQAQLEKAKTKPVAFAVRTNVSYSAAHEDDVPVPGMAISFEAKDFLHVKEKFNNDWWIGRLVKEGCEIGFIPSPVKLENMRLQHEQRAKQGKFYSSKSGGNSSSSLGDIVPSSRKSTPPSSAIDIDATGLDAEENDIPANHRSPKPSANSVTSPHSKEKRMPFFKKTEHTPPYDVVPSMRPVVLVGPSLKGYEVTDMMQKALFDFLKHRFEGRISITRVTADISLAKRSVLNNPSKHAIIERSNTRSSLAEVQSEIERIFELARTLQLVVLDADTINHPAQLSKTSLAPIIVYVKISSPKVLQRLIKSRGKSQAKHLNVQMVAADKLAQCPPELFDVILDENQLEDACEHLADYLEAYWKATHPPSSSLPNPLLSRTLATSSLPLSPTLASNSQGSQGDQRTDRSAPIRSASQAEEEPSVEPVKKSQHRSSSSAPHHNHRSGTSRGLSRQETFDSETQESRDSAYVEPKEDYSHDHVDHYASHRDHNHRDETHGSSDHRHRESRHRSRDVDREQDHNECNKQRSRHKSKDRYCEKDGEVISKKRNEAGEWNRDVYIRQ
Experimental: In addition to the potential for interaction with the L-type calcium channel, whole-cell patch-clamp was used to directly measure inward calcium currents in HEK-293 cells stably expressing the cloned human cardiac L-type Ca channel (α1C) and its β subunit. Effects of compounds were calculated by measuring inhibition of peak current. Experiments were carried out using an aqueous buffer at pH 7.4 and at room temperature. There is no protein in the buffer and drug concentrations reported are nominal free drug levels.

[5] = Protein binding, human; assay type: in vitro ADME
[6] = Protein binding, rabbit; assay type: in vitro ADME

Human Liver Microsomal Metabolism % remaining (Assay Conditions A) [1] | Structure (SMILES) | Human Liver Microsomal Metabolism % remaining (Assay Conditions B) [2] | inhibition at 10 µM [3] | Ca, % inh [4] | fraction unbound [5] | fraction unbound [6]
47% | CC(C)[C@@H](NC(=O)C1CCCC1)C(=O)N1CC[C@](O)(c2ccc(Cl)cc2)C(C)(C)C1 [#460] | 16% |  |  |  | 
67% | CC(C)CC(=O)N[C@@H](C(=O)N1CC[C@](O)(c2ccc(Cl)cc2)C(C)(C)C1)C(C)C [#466] | 33% |  |  |  | 
 | CC(C)[C@@H](NC(=O)NCC(C)(C)O)C(=O)N1CC[C@](O)(c2ccc(Cl)cc2)C(C)(C)C1 [Compound I] | 100% (B) | 12% | 29% @ 30 μM | 0.19 | 0.13

Structure (SMILES) | Human Liver Microsomal Metabolism % remaining (Assay Conditions A) [1] | Human Liver Microsomal Metabolism % remaining (Assay Conditions B) [2] | inhibition at 10 µM [3] | Ca, % inh [4] | fraction unbound [5] | fraction unbound [6]
CC(C)[C@@H](NC(=O)CC(C)(C)O)C(=O)N1CC[C@](O)(c2ccc(Cl)cc2)C(C)(C)C1 [#1356] | 100% (A)/100% (B) | 100% (A)/100% (B) |  |  |  | 
